What all share (format): in vivo
For test [1], the system named is streptozocin-treated mice fed a high-fat Western Diet. Kind of test: Final Glucose Measurement on the 14th day (after 28th dose). The settings on record: compared to mice not treated with compound (FIG. 4). The protocol: Groups of mice were maintained on diet and dosing schedules as described, and on the 14th day were moved to the procedure room, dosed with a final 28th dose (of compound or vehicle only, according to their group as shown in FIG. 4), then acclimated for about 1 hour with access to food and water before bleeding to measure blood glucose.
In FIG. 4 the first […] bars (from left to right) represent mice that were treated with STZ and vehicle only; STZ and GW021B 10 mg/kg; STZ and GW021 B 30 mg/kg; STZ and GW021 B 100 mg/kg; STZ and GW845 3 mg/kg. The seventh bar represents mice that were not treated with STZ (citric acid control) and were not treated with any compound (Vehicle only). “Vehicle” mice were dosed with HPMC/Tween only (no GW021, CB-1 or GW 845). Each bar represents an average of a single blood draw taken on day 14 from each of the ten mice in a group.

Test [2] deals with male C57BL/6J mice fed a high fat Western Diet, with or without streptozotocin. Kind of test: Acute Glucose Lowering Study (tail-vein blood glucose over 5 hours after a single dose). The following applies: for average change in blood glucose measurement: 100 mg/kg, N=10. The source says:
The studies reported below dosed male C57BL/6J mice with an EP3 antagonist, GW671021B, and monitored the effects on glucose homeostasis by measuring tail-vein blood glucose. The animals were either (a) fed a high fat diet to induce mild insulin resistance, or (b) were fed the high fat diet and also treated with a low dose of streptozotocin (which damages the pancreatic beta-cells) resulting in both insulin resistance and insulin deficiency (as in T2DM patients).
Materials and Methods: Male 6 week old C57BL/6J mice (Jackson Laboratory, Bar Harbor Me.) were made mildly insulin resistant by feeding a high fat Western Diet (WD) (Research Diets, D12079B) for 3 weeks. Test mice were then made insulin deficient by intraperitoneal injection (IP) with 100 mg/kg Streptozotocin (STZ or streptozocin; Zanosar®, Sicor Pharmaceuticals, Irvine, Calif.) reconstituted in citric acid. Control mice (also on the WD) were injected with the same volume and concentration of citric acid without the STZ. Two weeks after the STZ (or control citric acid) injections the mice received injections of either GW021 in vehicle, or vehicle alone (as described below). Student's t-test or Tukey's HSD (Honestly Significant Different) test was used to determine the significance of the results.
Acute Glucose Lowering Study: At 6:30 am mice were transferred to clean cages with water in the procedure room and allowed to acclimate for 1 hour. After acclimation, a small snip was made at the tip of the tail for blood collection and baseline glucose measurements were collected using the Bayer Elite XL glucometer. Mice were dosed with either compound GW671021B (100 mg/kg body weight) in a suspension in 0.5% HPMC, 0.1% Tween 80; or dosed with Vehicle only (HPMC, 0.1% Tween 80). Whole blood for glucose measurement was collected at 0.5, 1, 2, 3, 4, and 5 hours after dosing. […] There were 10 mice in each treatment group.
Data represent an average blood glucose measurement (mg/dL) of the 10 mice in each treatment group at each time point.

For test [3], the system named is C57BL/6J mice fed a high fat diet (Western Diet) and treated with streptozocin. As to the kind of experiment: 14 Day Chronic Study (glucose after 1st, 15th and 27th dose). The settings on record: 0, 7 and 13 days of treatment, twice daily dosing, compared to STZ treated mice without compound. The protocol:
A 14 day chronic study in C57BL/6J mice was performed. The animals were fed a high fat diet (Western Diet) and treated with a low dose of streptozocin (which damages the pancreatic beta-cells) resulting in both insulin resistance and insulin deficiency (as in T2DM patients). Mice were prepared as generally described above in Example 2. Two weeks after injection of streptozocin, a twice daily dosing schedule was started with: • 1. GW67021B (10 mg/kg, 30 mg/kg, or 100 mg/kg); or • 2. CB-1 (Rimonabant, antagonist of the CB-1 receptor; commonly used as a positive control for weight-loss inducing drugs) at 5 mg/kg; or • 3. GW34784 (PPAR gamma agonist compound as another positive control) at 3 mg/kg (also referred to as GW845 or GW7845))
All compounds were dosed in suspension in 0.5% HPMC; 0.1% Tween 80 by body weight. The same general procedures used in the acute study (Example 2) were utilized in this chronic study. Glucose was measured following the 1st, 15th and 27th dose (day 0, 7, and 13) at 0, 1, 2, 3, 4, and 5 hour time points. Results are graphed in FIGS. 3a-3c for the groups of mice receiving WD+Streptozocin+Vehicle (no compound); WD+Streptozocin+GW021 10 mg/kg; WD+Streptozocin+GW021 30 mg/kg; WD+Streptozocin+GW021 100 mg/kg; WD+Streptozocin+GW845 3 mg/kg; WD+Streptozocin+CB-1 5 mg/kg.

As to `COc1ccc(Br)cc1S(=O)(=O)[N-]C(=O)/C=C/c1ccccc1Cc1ccc2ccccc2c1.[Na+]` [GW021B], in test [1], the “blood glucose level on the fourteenth day of treatment, in words” value is “lower blood glucose levels”. Moreover, the “average change in blood glucose measurement” value (“average change” below) was 0 mg/dL in test [2] (WD + STZ mice, 0 hrs (baseline)); -16 mg/dL in test [2] (WD + STZ mice, 0.5 hrs after dosing); -46 mg/dL in test [2] (WD + STZ mice, 1 hr after dosing); -59 mg/dL in test [2] (WD + STZ mice, 2 hrs after dosing); -66 mg/dL in test [2] (WD + STZ mice, 3 hrs after dosing); -83 mg/dL in test [2] (WD + STZ mice, 4 hrs after dosing). The “average change” value in test [2] (WD + STZ mice, 5 hrs after dosing) is -79 mg/dL; in test [2] (WD + citric acid mice (no STZ), 0 hrs (baseline)) it was 0 mg/dL; in test [2] (WD + citric acid mice (no STZ), 0.5 hrs after dosing), -14 mg/dL; in test [2] (WD + citric acid mice (no STZ), 1 hr after dosing) it was -14 mg/dL; in test [2] (WD + citric acid mice (no STZ), 2 hrs after dosing) it was -9 mg/dL; in test [2] (WD + citric acid mice (no STZ), 3 hrs after dosing) it was -18 mg/dL. For the same compound, the “average change” value in test [2] (WD + citric acid mice (no STZ), 4 hrs after dosing) was -37 mg/dL; in test [2] (WD + citric acid mice (no STZ), 5 hrs after dosing), -37 mg/dL. Further, in test [2] (streptozocin-treated C57BL/6J mice fed high-fat Western Diet, 5 hour time course), the “effect on blood glucose (change compared to baseline), in words” value is recorded as “blood glucose lowering effect”. For the same compound, in test [3], the “effect on glucose (change compared to baseline), in words” value is “continued to have glucose lowering effects”.
